From ChEMBL document CHEMBL1201862, “PubChem BioAssay data set” (2004)
Values joined by “and” are separate entries in the source; they are usually repeats but may differ in a detail not shown here. Equal values may be shown once. Active and inactive are the calls of the source.

Columns and labels:
[1] = target: Cytochrome P450 2D6 (Homo sapiens, UniProt P10635);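 also: CYP2D6 member of a cytochrome P450 panel assay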
[2] = target: Cytochrome P450 2C9 (Homo sapiens, UniProt P11712)
[3] = C. albicans growth with fluconazole, confirmation, fluorescence, retest (AID 2467); assay type: functional, cell-based
[4] = NIH-3T3 fibroblast cytotoxicity, dose response, cytotoxicity control, cell-based, fluorescence, Alamar Blue, secondary assay (AID 2327); assay type: functional;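 also: NIH-3T3 mouse fibroblasts cultured with fluconazole at 8 µg/mL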
[5] = target: T1, Cytochrome P450 1A2 (Homo sapiens, UniProt P05177);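 also: PubChem cytochrome P450 panel assay, CYP1A2 panel member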
T1 sequence (P05177 whole entry): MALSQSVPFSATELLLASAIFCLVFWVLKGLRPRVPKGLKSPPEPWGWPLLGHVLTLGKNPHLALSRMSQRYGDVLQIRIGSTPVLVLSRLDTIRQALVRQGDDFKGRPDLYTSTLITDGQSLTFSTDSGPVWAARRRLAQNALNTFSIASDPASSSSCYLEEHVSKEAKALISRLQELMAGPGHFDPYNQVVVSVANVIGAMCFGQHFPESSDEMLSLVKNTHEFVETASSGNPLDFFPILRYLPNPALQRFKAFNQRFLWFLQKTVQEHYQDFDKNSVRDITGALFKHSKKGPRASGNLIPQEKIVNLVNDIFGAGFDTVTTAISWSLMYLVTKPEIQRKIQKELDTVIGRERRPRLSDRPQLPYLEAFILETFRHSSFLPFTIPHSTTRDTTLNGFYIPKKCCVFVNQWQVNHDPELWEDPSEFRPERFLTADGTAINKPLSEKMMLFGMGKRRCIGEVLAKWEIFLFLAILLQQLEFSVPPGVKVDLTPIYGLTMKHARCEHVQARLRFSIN

[6] = target: T2, Protein RecA (Mycobacterium tuberculosis, UniProt P9WHJ3); experiment: Fluorescence Cell-Free Homogeneous Dose Retest to Identify Inhibitors of RecA-Intein Splicing Activity. [Related pubchem assays (depositor defined):AID2097, AID2223, AID489010, AID492950]; assay type: functional
T2 sequence (P9WHJ3 whole entry): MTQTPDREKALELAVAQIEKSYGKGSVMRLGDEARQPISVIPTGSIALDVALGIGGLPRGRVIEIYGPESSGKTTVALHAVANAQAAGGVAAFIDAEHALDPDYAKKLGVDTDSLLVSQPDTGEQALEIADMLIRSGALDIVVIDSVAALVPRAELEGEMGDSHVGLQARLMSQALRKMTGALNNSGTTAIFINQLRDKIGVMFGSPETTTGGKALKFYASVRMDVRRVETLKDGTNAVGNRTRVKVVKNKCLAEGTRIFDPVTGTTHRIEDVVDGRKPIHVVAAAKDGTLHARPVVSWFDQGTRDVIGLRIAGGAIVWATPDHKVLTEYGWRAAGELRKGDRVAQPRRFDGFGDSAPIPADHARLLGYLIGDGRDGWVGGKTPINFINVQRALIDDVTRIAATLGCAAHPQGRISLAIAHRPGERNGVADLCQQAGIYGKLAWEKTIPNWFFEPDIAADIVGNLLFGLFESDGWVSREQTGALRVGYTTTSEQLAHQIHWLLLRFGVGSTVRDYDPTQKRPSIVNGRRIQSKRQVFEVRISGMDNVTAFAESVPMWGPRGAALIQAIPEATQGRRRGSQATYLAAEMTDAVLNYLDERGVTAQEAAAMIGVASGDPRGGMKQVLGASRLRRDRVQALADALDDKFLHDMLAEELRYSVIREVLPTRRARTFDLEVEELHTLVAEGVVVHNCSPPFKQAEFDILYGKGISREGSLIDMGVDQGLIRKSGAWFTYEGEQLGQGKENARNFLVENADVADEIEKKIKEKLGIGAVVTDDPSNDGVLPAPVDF

[7] = target: T3, Replicative DNA helicase DnaB (Mycobacterium tuberculosis, UniProt P9WMR3); experiment: DnaB intein splicing inhibitors, dose response, biochemical, cell-free fluorescence (AID 449749); assay type: functional
T3 sequence (P9WMR3 whole entry): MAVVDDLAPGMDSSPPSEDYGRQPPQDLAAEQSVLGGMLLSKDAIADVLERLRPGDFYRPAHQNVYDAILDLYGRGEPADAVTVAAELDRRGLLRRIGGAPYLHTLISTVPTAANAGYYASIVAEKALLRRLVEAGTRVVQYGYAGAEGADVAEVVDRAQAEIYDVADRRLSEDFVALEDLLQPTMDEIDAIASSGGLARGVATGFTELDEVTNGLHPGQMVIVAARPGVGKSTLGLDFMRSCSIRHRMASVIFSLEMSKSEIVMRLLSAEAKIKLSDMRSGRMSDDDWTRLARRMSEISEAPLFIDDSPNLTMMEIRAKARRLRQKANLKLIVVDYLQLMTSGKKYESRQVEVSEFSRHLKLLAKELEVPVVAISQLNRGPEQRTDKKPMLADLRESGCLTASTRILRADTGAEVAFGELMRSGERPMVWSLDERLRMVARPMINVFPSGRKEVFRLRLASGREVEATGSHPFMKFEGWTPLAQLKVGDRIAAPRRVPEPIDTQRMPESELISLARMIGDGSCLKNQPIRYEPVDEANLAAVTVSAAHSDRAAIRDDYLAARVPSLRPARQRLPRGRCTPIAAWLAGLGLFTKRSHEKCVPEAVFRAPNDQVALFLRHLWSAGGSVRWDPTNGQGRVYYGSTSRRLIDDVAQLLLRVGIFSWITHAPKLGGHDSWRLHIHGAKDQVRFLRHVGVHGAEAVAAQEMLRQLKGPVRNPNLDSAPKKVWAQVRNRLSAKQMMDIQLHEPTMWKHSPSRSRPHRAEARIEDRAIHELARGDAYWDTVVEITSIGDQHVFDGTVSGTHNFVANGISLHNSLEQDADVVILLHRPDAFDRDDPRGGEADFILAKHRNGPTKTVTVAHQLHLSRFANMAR

[8] = target: Cytochrome P450 2C19 (Homo sapiens, UniProt P33261); experiment: Cytochrome panel assay with activity outcomes. Panel member name: p450-cyp2c19 Compounds with AC50 equal or less than 10 uM are considered active; assay type: functional; conditions: read-out: AC50
Sequence of Cytochrome P450 2C19 (P33261 whole entry): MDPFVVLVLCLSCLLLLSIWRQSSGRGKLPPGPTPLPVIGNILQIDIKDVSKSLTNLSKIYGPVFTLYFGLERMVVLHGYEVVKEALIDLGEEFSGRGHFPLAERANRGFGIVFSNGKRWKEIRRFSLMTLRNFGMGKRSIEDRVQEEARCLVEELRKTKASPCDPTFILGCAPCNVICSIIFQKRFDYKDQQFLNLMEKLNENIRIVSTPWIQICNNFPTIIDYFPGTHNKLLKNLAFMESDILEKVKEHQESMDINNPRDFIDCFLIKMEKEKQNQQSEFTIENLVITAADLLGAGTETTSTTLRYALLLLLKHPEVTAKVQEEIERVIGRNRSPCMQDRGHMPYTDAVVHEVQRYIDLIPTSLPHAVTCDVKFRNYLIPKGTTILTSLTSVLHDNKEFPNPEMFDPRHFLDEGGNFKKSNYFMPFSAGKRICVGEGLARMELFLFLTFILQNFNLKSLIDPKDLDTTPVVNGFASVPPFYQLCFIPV

[9] = target: Cytochrome P450 3A4 (Homo sapiens, UniProt P08684);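 also: CYP3A4 tested as one member of a cytochrome P450 panel screen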
Sequence of Cytochrome P450 3A4 (P08684 whole entry): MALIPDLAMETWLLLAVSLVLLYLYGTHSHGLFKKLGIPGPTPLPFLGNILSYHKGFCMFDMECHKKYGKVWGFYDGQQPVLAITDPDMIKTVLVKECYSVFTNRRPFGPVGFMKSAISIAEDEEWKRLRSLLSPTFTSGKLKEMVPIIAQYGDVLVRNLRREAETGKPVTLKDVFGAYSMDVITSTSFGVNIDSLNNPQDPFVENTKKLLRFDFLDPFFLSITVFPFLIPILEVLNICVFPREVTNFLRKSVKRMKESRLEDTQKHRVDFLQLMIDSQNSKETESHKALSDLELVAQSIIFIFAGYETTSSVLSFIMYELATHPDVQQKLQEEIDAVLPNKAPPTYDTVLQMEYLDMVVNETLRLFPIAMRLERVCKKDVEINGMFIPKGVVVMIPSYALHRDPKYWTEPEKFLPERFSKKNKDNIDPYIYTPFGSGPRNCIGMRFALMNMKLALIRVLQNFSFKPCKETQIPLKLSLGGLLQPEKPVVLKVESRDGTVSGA

[10] = system: INS1; experiment: beta cell apoptosis inhibitors, cytokine rescue, dose response, luminescence, retest (AID 449756); assay type: functional, cell-based; conditions: Rattus norvegicus;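 also: cell death triggered by IL-1 beta plus TNF-alpha plus IFN-gamma mixture; protective hits raise ATP signal compared with cytokine alone wells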
[11] = system: Streptococcus sp. 'group A'; experiment: growth inhibition of control SK(-) GAS strain, dose response, counter-screen for streptokinase expression inhibitor project, luminescence, kanamycin, BacTiterGlo, confirmation (AID 1900); assay type: functional, organism-based
[12] = system: Streptococcus; experiment: Group A Streptococcus viability loss, dose response, counter-screen for streptokinase expression inhibitor project, luminescence, BacTiterGlo (AID 1915); assay type: functional, organism-based;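 also: potency for reduction of bacterial viability or growth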
[13] = target: T4, Streptokinase A (Streptococcus pyogenes serotype M1, UniProt P10520); experiment: S. pyogenes streptokinase expression inhibitors, potency, dose response, plasminogen activation absorbance, OD405 (AID 1914); assay type: functional, Streptococcus pyogenes M1 GAS;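 also: secreted streptokinase activity via plasminogen activation per viability signal from cell pellet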
T4 sequence (P10520 whole entry): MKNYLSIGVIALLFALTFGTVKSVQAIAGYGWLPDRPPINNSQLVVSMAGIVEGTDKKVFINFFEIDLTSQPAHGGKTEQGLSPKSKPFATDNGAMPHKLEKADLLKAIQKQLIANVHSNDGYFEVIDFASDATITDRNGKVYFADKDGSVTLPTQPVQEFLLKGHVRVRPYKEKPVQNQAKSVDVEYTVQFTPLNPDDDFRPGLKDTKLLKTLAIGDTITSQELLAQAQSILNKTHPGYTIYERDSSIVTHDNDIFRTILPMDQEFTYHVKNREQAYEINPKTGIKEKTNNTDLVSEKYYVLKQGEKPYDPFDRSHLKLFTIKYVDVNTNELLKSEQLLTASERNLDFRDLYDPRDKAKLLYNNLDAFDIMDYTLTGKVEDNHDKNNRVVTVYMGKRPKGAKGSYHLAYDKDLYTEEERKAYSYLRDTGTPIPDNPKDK

Sequence of Cytochrome P450 2D6 (P10635 whole entry): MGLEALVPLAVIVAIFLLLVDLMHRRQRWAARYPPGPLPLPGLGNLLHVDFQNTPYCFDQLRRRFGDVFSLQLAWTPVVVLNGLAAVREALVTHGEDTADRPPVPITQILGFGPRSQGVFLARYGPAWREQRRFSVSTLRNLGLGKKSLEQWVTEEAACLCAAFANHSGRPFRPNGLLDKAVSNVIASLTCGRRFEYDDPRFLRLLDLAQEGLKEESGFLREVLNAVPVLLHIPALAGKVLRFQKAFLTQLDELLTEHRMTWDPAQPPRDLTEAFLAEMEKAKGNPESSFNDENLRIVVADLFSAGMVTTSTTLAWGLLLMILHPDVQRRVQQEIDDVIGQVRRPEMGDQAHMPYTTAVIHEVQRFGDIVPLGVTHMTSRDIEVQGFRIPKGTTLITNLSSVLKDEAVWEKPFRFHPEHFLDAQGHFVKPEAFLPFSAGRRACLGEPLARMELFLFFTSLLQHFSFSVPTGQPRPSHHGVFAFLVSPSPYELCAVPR
Sequence of Cytochrome P450 2C9 (P11712 whole entry): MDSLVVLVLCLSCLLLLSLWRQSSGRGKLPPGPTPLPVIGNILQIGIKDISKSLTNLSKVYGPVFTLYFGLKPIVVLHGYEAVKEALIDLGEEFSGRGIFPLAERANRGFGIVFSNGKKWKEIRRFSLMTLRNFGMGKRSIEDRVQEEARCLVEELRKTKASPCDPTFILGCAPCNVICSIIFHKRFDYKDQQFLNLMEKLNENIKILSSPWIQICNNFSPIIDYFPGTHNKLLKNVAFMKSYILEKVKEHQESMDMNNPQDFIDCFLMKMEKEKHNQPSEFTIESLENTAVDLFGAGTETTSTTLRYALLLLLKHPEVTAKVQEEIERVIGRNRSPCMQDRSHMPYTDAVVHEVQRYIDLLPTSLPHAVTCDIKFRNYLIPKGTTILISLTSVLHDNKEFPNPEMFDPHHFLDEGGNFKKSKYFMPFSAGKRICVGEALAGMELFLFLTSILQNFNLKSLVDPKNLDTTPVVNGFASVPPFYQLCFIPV

COCCNC(=O)[C@H](C)[C@H]1C[C@]1(C)[C@H](NC(=O)OCc1ccccc1)c1ccccc1
AC50 [1]: 20 µM (inconclusive) | AC50 [2]: 20 µM (inconclusive)

C[C@H](NCCc1ccc(O)cc1)[C@@H](O)c1ccc(O)cc1
AC50 [1]: 15.8 µM (inconclusive) and 12.6 µM (inconclusive)

O=C(O)c1cc(-c2ccc(O)cc2)on1
EC50 [3]: > 38 µM (not active) | EC50 [4]: > 160 µM (inactive)

FC(F)(F)COc1nc(OCC(F)(F)F)nc(N2CCN(c3ccccc3)CC2)n1
EC50 [3]: > 38 µM (not active) | EC50 [4]: > 160 µM (inactive)

C[As+](C)(c1ccc(Br)c([N+](=O)[O-])c1)c1ccc(Br)c([N+](=O)[O-])c1
AC50 [1]: 1.58 µM (inconclusive)

COc1cccc(CNc2ccc3nc(-c4ccc(N)cc4)c(OC)n3n2)c1
AC50 [1]: 10 µM (inconclusive)

C/N=C1\N[C@H](c2ccccc2)N(c2ccccc2)S1
AC50 [1]: 25.1 µM (inconclusive)

COc1ccc(N(CC(=O)Nc2cccc(C)c2)S(=O)(=O)c2c(C)n[nH]c2C)cc1
AC50 [1]: 20 µM (inconclusive)

Cc1ccc(C)c(NC(S)=NNC(=O)c2csc(C)c2)c1
EC50 [3]: 0.947 µM (active) | EC50 [4]: 67.2 µM (active)

COc1ccc(-n2c(=O)c(-c3ccc(Cl)cc3)nc3cnc(N(C)C)nc32)cc1
AC50 [5]: 10 µM (inconclusive) | AC50 [1]: 2.51 µM (inconclusive)

O=C(NC(=S)Nn1cnc2c(cnn2-c2ccccc2)c1=O)c1ccc(Cl)cc1
EC50 [3]: > 38 µM (not active) | EC50 [4]: 143 µM (inconclusive)

CCCCCCCSc1nc(N)cc(O)n1
EC50 [3]: 4.49 µM (active) | EC50 [4]: > 150 µM (inactive)

CCC(C)[C@H](NC(=O)NC1CCN(Cc2ccccc2)CC1)C(=O)OC (some centres not stated)
EC50 [6]: 2.96 µM (active) | AC50 [1]: 28.2 µM (inconclusive) | AC50 [2]: 2.24 µM (inconclusive) | AC50 [7]: 39.9 µM (active)

c1cnc2ccc(C(c3nnnn3C3CCCC3)N3CCN4CCCC4C3)cc2c1 (configuration not stated)
AC50 [8]: 25.1 µM (inconclusive) | AC50 [9]: 6.31 µM (inconclusive) | AC50 [1]: 22.4 µM (inconclusive) | AC50 [2]: 14.1 µM (inconclusive)

CCS(=O)(=O)N1CCC(C(=O)NCCN2CCN(Cc3ccccc3)CC2)CC1
AC50 [1]: 14.1 µM (inconclusive)

Cc1ccc(C)c(/C(=N\N=C(N)N)C2CC2)c1
AC50 [1]: 3.98 µM (inconclusive)

CS(=O)(=O)Nc1cccc(-c2nc(Nc3ccc(F)cc3)c3ccccc3n2)c1
AC50 [1]: 39.8 µM (inconclusive)

C#C[C@@]1(O)CC[C@@H]2[C@@H]3CCC4=C(CCC(=O)C4)[C@H]3CC[C@]21C
AC50 [5]: 12.6 µM (inconclusive) | AC50 [1]: 15.8 µM (inconclusive)

Cc1cnc(CNc2ncnc3ccc(-c4ccoc4)cc23)cn1
AC50 [1]: 39.8 µM (inconclusive)

CNc1nc(-c2ccccc2C)nc2ccccc12
AC50 [9]: 20 µM (inconclusive) | AC50 [1]: 31.6 µM (inconclusive)

CC(C)c1ccccc1-n1c(SCC(=O)N2CCN(c3ccccc3)CC2)nnc1-c1cccnc1
AC50 [1]: 15.8 µM (inconclusive)

CCC1=NN(C(=O)c2ccccc2O)C(O)(c2ccccc2)C1 (configuration not stated)
EC50 [3]: 0.788 µM (active) | AC50 [10]: 3.72 µM (active) | EC50 [11]: 2.58 µM (active) | EC50 [12]: 26.7 µM (active) | EC50 [4]: > 160 µM (inactive) | EC50 [13]: > 150 µM (not active)

O=C(CCC(=O)c1cccs1)OCC(=O)N1CCN(C(=O)c2ccco2)CC1
AC50 [1]: 39.8 µM (inconclusive) | AC50 [2]: 11.2 µM (inconclusive)

c1ccc(-c2ccc(N3CCCC4(CCNCC4)C3)cc2)cc1
AC50 [1]: 20 µM (inconclusive)

CCOc1nnc(C)c2c(C)n(-c3ccc(Cl)cc3)nc12
AC50 [8]: 31.6 µM (inconclusive) | AC50 [1]: 25.1 µM (inconclusive) | AC50 [2]: 25.1 µM (inconclusive)

CC(C)Cn1cnc2c(SCc3ccc(Cl)cc3Cl)nc(N)nc21
AC50 [5]: 1.26 µM (inconclusive) | AC50 [1]: 7.94 µM (inconclusive) | AC50 [2]: 7.94 µM (inconclusive)

C=CCn1cc(Cl)c(=O)n(CC=C)c1=O
AC50 [5]: 14.1 µM (inconclusive) | AC50 [9]: 25.1 µM (inconclusive) | AC50 [1]: 0.562 µM (inconclusive)

CCNC(=O)O/N=C(\C)c1sc(-c2ccccc2)nc1C
AC50 [1]: 20 µM (inconclusive)

Cc1c(/N=C/c2ccco2)n(Cc2ccccc2)c2ccccc12
AC50 [8]: 2.82 µM (inconclusive) | AC50 [1]: 4.47 µM (inconclusive)

CC(C)=CCc1c2c(c(O)c3c(=O)c4c(oc13)-c1cc(O)c(O)cc1OC4C=C(C)C)C=CC(C)(C)O2 (configuration not stated) [CYCLOHETERPHYLLIN]
EC50 [3]: > 38 µM (not active) | EC50 [11]: 2.95 µM (active) | EC50 [12]: 4.01 µM (active) | EC50 [4]: 16.5 µM (inconclusive) | EC50 [13]: > 150 µM (not active)
